Values belong to the molecule of their own block, whether it stands above or below them.
Tests used:
[1] = target: T1, reduced Bacterioferritin Comigratory Protein 1 (rBcp1) (Saccharolobus solfataricus, UniProt Q97WP9); experiment: Cys-NBD adduct absorbance at […] nm; assay type: binding; conditions: pH 7.4, 0.12 M urea, 25 °C, covalent, 1 -SH/mol
T1 construct: gene bcp-1; recombinant in E. coli BL21(DE3)-RIL (pET30Bcp1), HisTrap purified, 18 kDa band

[2] = target: T2, reduced Protein Disulphide Oxidoreductase (rSsPDO) (Saccharolobus solfataricus, UniProt Q980T5); experiment: Cys-NBD adduct absorbance at […] nm; assay type: binding; conditions: pH 7.4, 0.4 M urea, 25 °C, covalent, 2 -SH/mol
T2 construct: gene SSO0192; recombinant in E. coli, HisTrap and Resource Q purified, about 27 kDa band
T2 sequence (Q980T5 1-233): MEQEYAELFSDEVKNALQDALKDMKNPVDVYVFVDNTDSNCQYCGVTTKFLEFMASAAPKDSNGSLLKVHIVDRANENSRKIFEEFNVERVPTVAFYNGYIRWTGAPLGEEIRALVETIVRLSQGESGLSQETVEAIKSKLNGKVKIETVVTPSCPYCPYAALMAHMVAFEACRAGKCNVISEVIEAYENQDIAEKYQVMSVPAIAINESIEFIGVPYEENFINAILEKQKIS

[3] = target: T3, reduced α-chymotrypsinogen A (rChTg) (Bos taurus, UniProt P00766); experiment: Cys-NBD adduct absorbance at […] nm; assay type: binding; conditions: pH 5.0, 0.28 M urea, 25 °C; reduced protein; covalent; average of 10 -SH
[4] = target: T1, reduced Bacterioferritin Comigratory Protein 1 (rBcp1); experiment: loss of reactive Cys, DTNB titration; assay type: binding; conditions: pH 7.4, 0.2 M urea, 25 °C, covalent, 1 -SH/mol
Description: loss of reactive Cys, DTNB titration on reduced Bacterioferritin Comigratory Protein 1 (rBcp1)

[5] = target: T2, reduced Protein Disulphide Oxidoreductase (rSsPDO); experiment: loss of reactive Cys, DTNB titration; assay type: binding; conditions: pH 7.4, 0.4 M urea, 25 °C, covalent, 2 -SH/mol
Description: loss of reactive Cys, DTNB titration on reduced Protein Disulphide Oxidoreductase (rSsPDO)

[6] = target: T3, reduced α-chymotrypsinogen A (rChTg); experiment: thiol loss, DTNB titration; assay type: binding; conditions: pH 5.0, 0.2 M urea, 25 °C; reduced protein; covalent; 8 -SH/mol
Description: thiol loss, DTNB titration on reduced α-chymotrypsinogen A (rChTg)

[7] = target: T3, reduced α-chymotrypsinogen A (rChTg); experiment: Cys-DNB adduct absorbance at […] nm; assay type: binding; conditions: pH 5.0, 0.28 M urea, 25 °C; reduced protein; covalent; average of 10 -SH
[8] = target: T1, reduced Bacterioferritin Comigratory Protein 1 (rBcp1); experiment: Cys-DNB adduct absorbance at […] nm; assay type: binding; conditions: pH 7.4, 0.12 M urea, 25 °C, covalent, 1 -SH/mol
[9] = target: T2, reduced Protein Disulphide Oxidoreductase (rSsPDO); experiment: Cys-DNB adduct absorbance at […] nm; assay type: binding; conditions: pH 7.4, 0.4 M urea, 25 °C, covalent, 3 -SH/mol
Cys50 = Cys50 (UniProt position 50, STREACAFRDN); experiment: chemical modification; conditions: 25 °C; 20 mM Britton-Robinson buffers; reduced, molten globule-like conformation in 0.2 M urea; 2.6 µM protein
Cys45 = Cys45 (UniProt position 45, DDTPGCTREAS); experiment: chemical modification; conditions: 25 °C; 20 mM Britton-Robinson buffers; reduced, molten globule-like conformation in 0.2 M urea; 2.6 µM protein

T1 sequence (Q97WP9 entry or part of it): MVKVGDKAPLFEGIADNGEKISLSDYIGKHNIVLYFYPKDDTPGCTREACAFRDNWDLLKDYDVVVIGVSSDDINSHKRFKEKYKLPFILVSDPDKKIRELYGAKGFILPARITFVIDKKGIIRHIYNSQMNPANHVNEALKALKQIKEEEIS

Molecule: O=[N+]([O-])c1ccc(Cl)c2nonc12 [NBD-Cl, 4-chloro-7-nitrobenzofurazan]
- Reduced Bcp1 / k (M^-1 s^-1) (-SH/mole Bcp1) [1]: 27 ± 3 M⁻¹ s⁻¹
- Reduced SsPDO / k (M^-1 s^-1) (-SH/mole SsPDO) [2]: 72 ± 3 M⁻¹ s⁻¹
- Reduced ChTg / k (M^-1 s^-1) (-SH/mol ChTg) [3]: 12.6 ± 0.5 M⁻¹ s⁻¹

- Reduced Bcp1 / k (M^-1 s^-1) (-SH/mole Bcp1) [4]: 115 ± 10 M⁻¹ s⁻¹
- Reduced SsPDO / k (M^-1 s^-1) (-SH/mole SsPDO) [5]: 10 ± 2 M⁻¹ s⁻¹
- Reduced ChTg / k (M^-1 s^-1) (-SH/mol ChTg) [6]: 0.56 ± 0.02 M⁻¹ s⁻¹
Molecule: N[C@@H](CSSC[C@H](N)C(=O)O)C(=O)O [cystine]

- Reduced Bcp1 / k (M^-1 s^-1) (-SH/mole Bcp1) [4]: 15 ± 1 M⁻¹ s⁻¹
- Reduced SsPDO / k (M^-1 s^-1) (-SH/mole SsPDO) [5]: 6 ± 1 M⁻¹ s⁻¹
Molecule: N[C@@H](CCSSCC[C@H](N)C(=O)O)C(=O)O [homocystine]

- Reduced Bcp1 / k (M^-1 s^-1) (-SH/mole Bcp1) [4]: 33 ± 3 M⁻¹ s⁻¹
- Reduced SsPDO / k (M^-1 s^-1) (-SH/mole SsPDO) [5]: 20 ± 2 M⁻¹ s⁻¹
Molecule: NCCSSCCN [cystamine]

Molecule: O=[N+]([O-])c1ccc(Cl)c([N+](=O)[O-])c1 [CDNB, 1-chloro-2,4-dinitrobenzene]
- Reduced ChTg / k (M^-1 s^-1) (-SH/mol ChTg) [7]: 0.19 ± 0.01 M⁻¹ s⁻¹
- Reduced Bcp1 / k (M^-1 s^-1) (-SH/mole Bcp1) [8]: 0.55 ± 0.03 M⁻¹ s⁻¹
- Reduced SsPDO / k (M^-1 s^-1) (-SH/mole SsPDO) [9]: 1.6 ± 0.1 M⁻¹ s⁻¹

Molecule: Bacterioferritin comigratory protein 1 (Bcp1) C45S mutant, reduced (rC45S) (Sulfolobus solfataricus (Saccharolobus solfataricus); C45S)
- pKa (Cys50): 7.6 ± 0.1

Molecule: Bacterioferritin comigratory protein 1 (Bcp1) C50S mutant, reduced (rC50S) (Sulfolobus solfataricus (Saccharolobus solfataricus); C50S)
- pKa (Cys45): 7.9 ± 0.1

From publication PMC7265447, “Ultra-rapid glutathionylation of chymotrypsinogen in its molten globule-like conformation: A comparison to archaeal proteins” (Scientific Reports, 2020)
